pIC50: −log10 of the molar value.
Assays:
GSK 3-β = target: T1, GSK 3-β (Oryctolagus cuniculus, UniProt G1T8E2); assay: Glycogen Synthase Kinase 3-β Assay; format: biochemical, rabbit; conditions: for pIC50: inhibition value, recombinant rabbit GSK 3-β, PPI-2 substrate; for GSK 3-β % @ 1 μM: at 1 μM; for GSK 3-β % @ 0.1 μM: at 0.1 μM
T1 construct: purchased New England Biolabs, Beverly Mass
Protocol: The inhibitory activity of a compound against Glycogen Synthase Kinase 3-β (GSK 3-β) activity was assessed using a recombinant rabbit GSK 3-β according to the procedure below.
The mixture was reacted for 90 minutes at 30° C. to allow phosphorylation of the PPI-2 protein and then the protein in the reaction was precipitated using 10% trichloroacetic acid (TCA). The precipitated protein was collected on filter plates (MultiScreen-DV, Millipore, Bedford Mass.), which were subsequently washed. Finally, the radioactivity was quantified using a TopCount Scintillation Counter (Packard, Meridian Conn.). […] Staurosporine or Valproate (both available from several commercial sources), known inhibitors of GSK-3-β, were used as a positive control for screening.

PKC α = PKC α (Homo sapiens, UniProt P17252); assay: Protein Kinase C Scintillation Proximity Assay (SPA), PKC-α; format: biochemical; set-up: purchased PanVera, Madison Wis; host or cells: baculovirus expression vector; conditions: inhibition value, recombinant human isozyme, 1 μM ATP
Protocol: (§1) The binding activity of a compound for Protein Kinase C (PKC) was assessed using a homogeneous Scintillation Proximity Assay according to the procedure below.
The reaction was incubated for 15 min at 30° C. Reactions were terminated by the addition of streptavidin-coated SPA beads (Amersham) in a solution containing 1 mM EGTA, 10 mM EDTA and 100 μM ATP. Beads were allowed to settle overnight and the plates read in a Wallac MICROBETA scintillation counter (PerkinElmer Life sciences, Wellesley, Mass.).

PKC-βII = target: T2, PKC-βII (Homo sapiens, UniProt P05771); assay: Protein Kinase C Scintillation Proximity Assay (SPA), PKC-βII; format: biochemical; conditions: inhibition value, recombinant human isozyme, 1 μM ATP
T2 construct: purchased PanVera, Madison Wis; host or cells: baculovirus expression vector
Protocol: as §1
(§2) The different human PKC isozymes (were obtained from PanVera, Madison Wis. and had been prepared as recombinant enzymes produced from a baculovirus expression vector) were added to a reaction mixture containing a test compound, 20 mM HEPES (pH 7.4), 100 μM CaCl2, 10 mM MgCl2, 100 μg/mL phosphatidylserine, 20 μg/mL diacylglycerol, 1 μM ATP, 0.8 μCi (^33P)ATP, and 5 μg/mL biotinylated substrate peptide (Jing Zhao et al., J. Bio. Chem., 1998, 273, 23072). The reaction was incubated for 15 min at 30° C. Reactions were terminated by the addition of streptavidin-coated SPA beads (Amersham) in a solution containing 1 mM EGTA, 10 mM EDTA and 100 μM ATP. Beads were allowed to settle overnight and the plates read in a Wallac MICROBETA scintillation counter (PerkinElmer Life sciences, Wellesley, Mass.).
(§3) Values for inhibition of various PKC isozymes and GSK 3-β by certain compounds of the invention tested in the PKC SPA and GSK 3-β assays are shown in Table 1.

PKC-γ = target: T3, PKC-γ (Homo sapiens, UniProt P05129); assay: Protein Kinase C Scintillation Proximity Assay (SPA), PKC-γ; format: biochemical; conditions: inhibition value, recombinant human isozyme, 1 μM ATP
T3 construct: purchased PanVera, Madison Wis; host or cells: baculovirus expression vector
Protocol: as §1, §2, §3

L6 muscle cells = assay: Cell-Based GSK 3-β Assay (glycogen content of L6 muscle cells); conditions: for 14C-Glucose Incorporation (dpm): L6 cells, 2 hours
Protocol: Glycogen content of L6 muscle cells was measured according to the method described in Berger and Hayes, Anal. Biochem., 1998, 261, 159-163.
Briefly, L6 cells were serum starved overnight in alpha-MEM containing 0.1%. On the following day, cells were washed three times with 300 μL KRPH buffer (150 mM NaCl, 5 mM KCl, 2.9 mM Na2HPO4, 1.25 mM MgSO4, 1.2 mM CaCl2, 10 mM HEPES, pH 7.4) and labeled with 200 μL alpha-MEM containing 5.5 mM ^14C-Glucose (0.1 μCi) in the presence of vehicle (DMSO) or compounds. After 2 hours, cells were washed three times with ice-cold PBS and glycogen was precipitated for 2 hours using ice-cold 66% EtOH. Precipitated glycogen was then washed three times with ice-cold 66% EtOH and ^14C-glycogen was quantified using a TopCount (Packard).
Compounds were tested in separate experiments at the dose levels shown. Where shown, the 0.0 μM dose was used as a control.

PKC-βI = target: T4, PKC-βI (Homo sapiens, UniProt P05771); assay: Protein Kinase C Scintillation Proximity Assay (SPA), PKC-βI; format: biochemical; conditions: inhibition value, recombinant human isozyme, 1 μM ATP
T4 construct: purchased PanVera, Madison Wis; host or cells: baculovirus expression vector
Protocol: as §1, §2, §3

T1 sequence (G1T8E2 1-432): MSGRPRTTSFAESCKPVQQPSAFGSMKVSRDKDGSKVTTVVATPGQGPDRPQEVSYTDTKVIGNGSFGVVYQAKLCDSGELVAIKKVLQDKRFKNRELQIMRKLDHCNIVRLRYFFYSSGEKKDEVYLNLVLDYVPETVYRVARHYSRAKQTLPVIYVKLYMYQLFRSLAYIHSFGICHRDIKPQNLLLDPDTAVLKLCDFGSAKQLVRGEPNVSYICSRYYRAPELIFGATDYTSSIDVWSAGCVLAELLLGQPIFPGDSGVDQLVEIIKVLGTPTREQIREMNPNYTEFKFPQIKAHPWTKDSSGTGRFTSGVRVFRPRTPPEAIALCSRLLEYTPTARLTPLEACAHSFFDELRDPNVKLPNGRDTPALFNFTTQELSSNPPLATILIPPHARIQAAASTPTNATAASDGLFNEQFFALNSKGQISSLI
T2 sequence (P05771 1-673 isoform P05771-2): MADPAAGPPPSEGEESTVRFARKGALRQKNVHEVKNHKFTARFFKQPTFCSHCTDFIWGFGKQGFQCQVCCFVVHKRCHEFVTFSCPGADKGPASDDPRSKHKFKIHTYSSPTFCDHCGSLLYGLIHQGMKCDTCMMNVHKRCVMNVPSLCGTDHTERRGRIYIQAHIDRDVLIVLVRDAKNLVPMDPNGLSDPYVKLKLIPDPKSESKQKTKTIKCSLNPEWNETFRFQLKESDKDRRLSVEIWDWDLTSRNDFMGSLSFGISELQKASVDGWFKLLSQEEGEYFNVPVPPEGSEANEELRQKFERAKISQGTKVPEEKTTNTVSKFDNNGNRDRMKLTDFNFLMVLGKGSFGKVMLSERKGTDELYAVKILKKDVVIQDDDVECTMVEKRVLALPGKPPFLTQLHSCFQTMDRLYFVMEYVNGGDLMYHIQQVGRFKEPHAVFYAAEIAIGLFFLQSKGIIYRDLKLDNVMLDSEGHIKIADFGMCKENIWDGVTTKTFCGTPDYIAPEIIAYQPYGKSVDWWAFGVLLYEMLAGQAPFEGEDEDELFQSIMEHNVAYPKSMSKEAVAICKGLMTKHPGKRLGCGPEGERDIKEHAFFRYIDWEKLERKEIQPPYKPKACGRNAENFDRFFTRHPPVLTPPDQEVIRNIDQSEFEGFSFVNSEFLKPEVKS
T4 sequence (P05771 whole entry): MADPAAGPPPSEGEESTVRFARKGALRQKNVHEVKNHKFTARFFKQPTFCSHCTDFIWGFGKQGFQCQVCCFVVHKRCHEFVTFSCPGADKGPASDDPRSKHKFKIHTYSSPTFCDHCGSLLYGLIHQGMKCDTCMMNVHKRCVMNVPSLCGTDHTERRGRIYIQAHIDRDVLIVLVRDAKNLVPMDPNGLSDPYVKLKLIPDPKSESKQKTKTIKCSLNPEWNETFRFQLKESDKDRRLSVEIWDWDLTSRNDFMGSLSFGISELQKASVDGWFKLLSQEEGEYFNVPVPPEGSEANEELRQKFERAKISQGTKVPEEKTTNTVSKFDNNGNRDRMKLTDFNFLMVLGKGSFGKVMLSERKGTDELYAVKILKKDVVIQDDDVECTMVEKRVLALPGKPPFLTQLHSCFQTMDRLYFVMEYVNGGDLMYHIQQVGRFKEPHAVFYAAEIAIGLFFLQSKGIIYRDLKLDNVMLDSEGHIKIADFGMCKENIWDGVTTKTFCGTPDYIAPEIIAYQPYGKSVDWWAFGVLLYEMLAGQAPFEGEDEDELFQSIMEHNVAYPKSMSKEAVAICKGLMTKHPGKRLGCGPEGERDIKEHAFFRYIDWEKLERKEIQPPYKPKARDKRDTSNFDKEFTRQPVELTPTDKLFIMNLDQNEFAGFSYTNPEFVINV

SMILES | pIC50 (GSK 3-β) | pIC50 (PKC α) | pIC50 (PKC-βII) | pIC50 (PKC-γ) | also measured
CC(C)N1CCOCCn2cc(c3ccccc32)C2=C(C(=O)NC2=O)c2cn(c3ccccc23)CCOCC1 [Cpd 14] | 7.12 | 7.72 | 7.82 | 7.47 | 
O=C1NC(=O)C2=C1c1cn(c3ccccc13)CCOCCOCCOCCn1cc2c2ccccc21 [Cpd 5] | 7.31 | 6.39 | 7.80 | 5.87 | 14C-Glucose Incorporation (dpm) (L6 muscle cells; dose 0.01 μM): 2884 dpm; 14C-Glucose Incorporation (dpm) (L6 muscle cells; dose 0.1 μM): 2988 dpm; 14C-Glucose Incorporation (dpm) (L6 muscle cells; dose 0.3 μM): 3339 dpm; 14C-Glucose Incorporation (dpm) (L6 muscle cells; dose 3 μM, 0.0 μM control Cpd 1 1640, Cpd 2 2078): 3438 dpm; 14C-Glucose Incorporation (dpm) (L6 muscle cells; dose 10 μM, 0.0 μM control Cpd 1 1640, Cpd 2 2078): 4700 dpm; glycogen synthesis in L6 skeletal muscle cells (L6 muscle cells; upon exposure to compound, result in words): increased glycogen synthesis; pIC50 (PKC-βI): 6.46
O=C1NC(=O)C2=C1c1cn(c3ccccc13)CCOCCOCCOCCOCCOCCn1cc2c2ccccc21 [Cpd 7] | 7.48 | 5.59 | 6.55 | 5.49 | pIC50 (PKC-βI): 5.51
O=C1NC(=O)C2=C1c1cn(c3ncccc13)CCOCCOCCn1cc2c2cccnc21 [Cpd 28] |  |  |  |  | GSK 3-β % @ 0.5 μM (GSK 3-β; at 0.5 μM): 48% @ 0.5 μM
CN1CCN(C)CCn2cc(c3ccccc32)C2=C(C(=O)NC2=O)c2cn(c3ccccc23)CCN(C)CC1 [Cpd 15] | 7.03 | 7.38 | 7.57 | 7.66 | 
CCN1CCCCCn2cc(c3cccnc32)C2=C(C(=O)NC2=O)c2cn(c3ncccc23)CCCC1 [Cpd 23] |  |  |  |  | GSK 3-β % @ 1 μM (GSK 3-β): 46% @ 1 μM
CN1CCOCCn2cc(c3ccccc32)C2=C(C(=O)NC2=O)c2nn(c3ccccc23)CCOCC1 [Cpd 16] |  |  | 7.20 |  | GSK 3-β % @ 0.1 μM (GSK 3-β): 37% @ 0.1 μM
O=C1NC(=O)C2=C1c1cn(c3ccccc13)Cc1cccc(n1)Cn1cc2c2cccnc21 [Cpd 9] | 6.79 | 6.50 | 7.46 | 6.64 | pIC50 (PKC-βI): 6.47
O=C1NC(=O)C2=C1c1cn(c3ccccc13)Cc1cccc(c1)Cn1cc2c2cccnc21 [Cpd 8] | 6.63 | 5.82 | 6.54 | 6.11 | pIC50 (PKC-βI): 5.75
O=C1CCCCCCn2cc(c3cccnc32)C2=C(C(=O)NC2=O)c2cn(c3ncccc23)CCCC1 [Cpd 25] | 7.10 |  |  |  | 
O=C1NC(=O)C2=C1c1cn(c3ncccc13)CCCCCNCCCCn1cc2c2cccnc21 [Cpd 22] |  |  |  |  | GSK 3-β % @ 1 μM (GSK 3-β): 30% @ 1 μM
CCN1CCOCCn2cc(c3ccccc32)C2=C(C(=O)NC2=O)c2nn(c3ccccc23)CCOCC1 [Cpd 17] |  |  | 6.41 |  | GSK 3-β % @ 0.2 μM (GSK 3-β; at 0.2 μM): 31% @ 0.2 μM
CCN1CCCCCn2cc(c3cccnc32)C2=C(C(=O)NC2=O)c2cn(c3ncccc23)CCCCC1 [Cpd 21] | 5.84 |  |  |  | 
CN1CCOCCn2cc(c3ccccc32)C2=C(C(=O)NC2=O)c2cn(c3ccccc23)CCOCC1 [Cpd 13] |  | 7.30 | 7.40 | 6.43 | 
CN1CCCn2cc(c3ccccc32)C2=C(C(=O)NC2=O)c2cn(c3ccccc23)CCOCCOCC1 [Cpd 31] |  | 7.85 | 8.15 | 7.62 | 
O=C1NC(=O)C2=C1c1cn(c3ncccc13)CCCCc1cccc(n1)CCCCn1cc2c2cccnc21 [Cpd 24] | 6.68 |  |  |  | 
O=C1NC(=O)C2=C1c1cn(c3ncccc13)C[C@H](O)CCCCCC[C@@H](O)Cn1cc2c2cccnc21 [Cpd 27] | 5.93 |  |  |  | 
O=C1NC(=O)C2=C1c1cn(c3ccccc13)CCOCCN(CCO)CCOCCn1cc2c2ccccc21 [Cpd 30] | 7.19 |  | 7.96 |  | 
O=C1NC(=O)C2=C1c1cn(c3ccccc13)CCOCCOCCOCCOCCn1cc2c2ccccc21 [Cpd 6] | 7.35 | 5.59 | 6.67 | 5.40 | pIC50 (PKC-βI): 5.83
CCN1CCOCCn2cc(c3ccccc32)C2=C(C(=O)NC2=O)c2cn(c3ccccc23)CCOCC1 [Cpd 12] | 7.48 | 7.70 | 8.10 | 6.82 | 
COCCN1CCOCCn2cc(c3ccccc32)C2=C(C(=O)NC2=O)c2nn(c3ccccc23)CCOCC1 [Cpd 29] |  |  | 6.43 |  | GSK 3-β % @ 0.1 μM (GSK 3-β): 30% @ 0.1 μM

Second part, led by results:

pIC50 (GSK 3-β) | pIC50 (PKC α) | pIC50 (PKC-βII) | pIC50 (PKC-γ) | SMILES | also measured
6.99 | 5.91 | 7.00 | 5.46 | O=C1NC(=O)C2=C1c1cn(c3ccccc13)CCOCCOCCn1cc2c2ccccc21 [Cpd 4] | pIC50 (PKC-βI): 5.80
6.96 |  |  |  | O=C1NC(=O)C2=C1c1cn(c3ncccc13)CCOCCSCCOCCn1cc2c2cccnc21 [Cpd 19] | 
5.04 |  |  |  | CCN1CCOCCn2cc(c3cccnc32)C2=C(C(=O)NC2=O)c2cn(c3ncccc23)CCOCC1 [Cpd 18] | 
7.05 |  |  |  | O=C1CCCCn2cc(c3cccnc32)C2=C(C(=O)NC2=O)c2cn(c3ncccc23)CCCC1 [Cpd 26] | 
7.48 | < 4.00 | < 4.00 | < 4.00 | O=C1NC(=O)C2=C1c1cn(c3ncccc13)CCOCCOCCOCCOCCOCCn1cc2c2cccnc21 [Cpd 3] | pIC50 (PKC-βI): < 4.00
6.21 |  |  |  | O=C1NC(=O)C2=C1c1cn(c3ncccc13)CCCCCNCCCCCn1cc2c2cccnc21 [Cpd 20] | 
